Experimental findings from ChEMBL document CHEMBL1147913, “Na+-glucose cotransporter (SGLT) inhibitory flavonoids from the roots of Sophora flavescens” (Bioorg Med Chem, 2007) are described below.

Assay [1] addresses T1, Sodium/glucose cotransporter 1 (Homo sapiens) (UniProt P13866).
T1 sequence (whole entry): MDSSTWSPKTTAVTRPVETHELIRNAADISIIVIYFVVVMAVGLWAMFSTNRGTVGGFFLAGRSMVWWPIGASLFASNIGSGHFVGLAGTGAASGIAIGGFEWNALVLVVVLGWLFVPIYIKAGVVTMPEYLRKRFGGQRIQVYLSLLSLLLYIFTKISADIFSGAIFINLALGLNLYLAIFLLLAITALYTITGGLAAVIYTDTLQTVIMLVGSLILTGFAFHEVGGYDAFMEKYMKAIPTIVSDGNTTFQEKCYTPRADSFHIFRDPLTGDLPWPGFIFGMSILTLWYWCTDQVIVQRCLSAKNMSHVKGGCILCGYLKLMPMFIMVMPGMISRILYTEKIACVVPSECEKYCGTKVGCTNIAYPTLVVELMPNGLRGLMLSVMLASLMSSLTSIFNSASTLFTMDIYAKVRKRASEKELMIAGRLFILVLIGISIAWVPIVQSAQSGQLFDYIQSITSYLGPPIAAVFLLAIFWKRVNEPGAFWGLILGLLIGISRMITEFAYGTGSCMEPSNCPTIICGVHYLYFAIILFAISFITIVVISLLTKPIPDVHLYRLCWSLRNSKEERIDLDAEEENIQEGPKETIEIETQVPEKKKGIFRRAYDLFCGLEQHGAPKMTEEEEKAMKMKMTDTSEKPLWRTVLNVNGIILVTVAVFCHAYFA
The assay can be described thus: Inhibition of human SGLT1 expressed in COS1 cells assessed as [14C]methyl-alpha-D-glucopyranoside uptake at 50 uM. The format is cell-based. To be noted: COS-1.

Assay [2] addresses T2, Sodium/glucose cotransporter 2 (Homo sapiens) (UniProt P31639).
T2 sequence (whole entry): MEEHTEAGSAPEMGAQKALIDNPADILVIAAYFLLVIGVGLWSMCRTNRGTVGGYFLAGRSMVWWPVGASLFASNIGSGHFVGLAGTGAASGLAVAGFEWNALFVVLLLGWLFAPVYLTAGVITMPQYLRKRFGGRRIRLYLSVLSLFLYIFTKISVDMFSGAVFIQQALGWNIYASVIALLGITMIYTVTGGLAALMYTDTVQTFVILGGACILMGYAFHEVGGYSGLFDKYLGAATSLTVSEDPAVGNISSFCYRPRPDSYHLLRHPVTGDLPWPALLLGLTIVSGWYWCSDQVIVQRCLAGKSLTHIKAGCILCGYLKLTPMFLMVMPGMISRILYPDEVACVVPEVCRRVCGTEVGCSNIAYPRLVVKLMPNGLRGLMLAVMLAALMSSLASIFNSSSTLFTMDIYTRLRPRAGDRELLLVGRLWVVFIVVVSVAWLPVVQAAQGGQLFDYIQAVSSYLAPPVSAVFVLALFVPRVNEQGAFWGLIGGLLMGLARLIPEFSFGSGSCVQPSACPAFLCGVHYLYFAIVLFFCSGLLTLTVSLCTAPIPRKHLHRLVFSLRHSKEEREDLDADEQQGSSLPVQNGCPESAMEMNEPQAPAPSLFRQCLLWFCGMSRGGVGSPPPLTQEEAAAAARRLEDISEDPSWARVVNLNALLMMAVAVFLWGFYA
Put plainly: Inhibition of human SGLT2 expressed in COS1 cells assessed as [14C]methyl-alpha-D-glucopyranoside uptake at 50 uM. It counts as cell-based. The following applies: COS-1.

The target of assay [3] is T3, Sodium/glucose cotransporter 2 (Homo sapiens, UniProt P31639).
T3 sequence (P31639 whole entry): T2 sequence (whole entry)
Put plainly: Inhibition of human SGLT2 expressed in COS1 cells assessed as [14C]methyl-alpha-D-glucopyranoside uptake. It counts as cell-based, COS-1.

In general, inhibition refers to the relative decrease from the control value, in per cent. Broadly, the IC50 is the concentration at which inhibition is half-maximal.

With `COc1ccc(-c2coc3cc(O)ccc3c2=O)cc1`, the inhibition is under 25% in assay [1] and 75.4% in assay [2].

As to `COc1ccc2c(c1)OC[C@H]1c3cc4c(cc3O[C@@H]21)OCO4`, the inhibition in assay [1] and in assay [2] was under 25% throughout.

In the case of `Oc1ccc2c(c1)OC[C@H]1c3cc4c(cc3O[C@@H]21)OCO4`, the inhibition is under 25% in assay [1] and 66.5% in assay [2].

Take `C=C(C)[C@H](CC=C(C)C)Cc1c(O)cc(O)c2c1O[C@H](c1ccc(O)cc1O)CC2=O` [SOPHORAFLAVANONE G]: the inhibition came to 99.2% in assay [1] and 100% in assay [2]. The IC50 in assay [3] is 4100 nM.

With `C=C(C)C(CC=C(C)C)Cc1c(O)cc(OC)c2c1O[C@H](c1ccc(O)cc1O)[C@H](O)C2=O` (stereo partly drawn), the inhibition in assay [1] stood at 58.4%; in assay [2], 87.3%.

Consider `C=C(C)C(CC=C(C)C)Cc1c(O)cc(OC)c2c1O[C@H](c1ccc(O)cc1O)CC2=O` (stereo partly drawn) [KURARINONE], for which the inhibition was determined as 98.8% in assay [1] and 99.7% in assay [2]. In addition, the IC50 in assay [3] came to 1700 nM.

Turning to `C=C(C)[C@H](CCC(C)(C)O)Cc1c(O)cc(OC)c2c1O[C@H](c1ccc(O)cc1O)[C@H](O)C2=O`, the values for the inhibition in assay [1] and in assay [2] were 29.7% and 43.7%, respectively.

Turning to `C=C(C)[C@H](CC=C(C)C)Cc1c(O)cc(OC)c(C(=O)/C=C/c2ccc(O)cc2O)c1O`, the values for the inhibition in assay [1] and in assay [2] were 71.1% and 100%, respectively.
